Test results reported in article PMC7391726, “Fatty acid mimetic PBI-4547 restores metabolic homeostasis via GPR84 in mice with non-alcoholic fatty liver disease” (Scientific Reports, 2020).

System: HFD-fed WT mice
Experiment: High-fat diet (HFD) mouse model of obesity/NAFLD, WT mice
Type: in vivo
Excerpt: The well-established high-fat diet (HFD) mouse model of obesity was used to study the impact of PBI-4547 on the onset and progression of NAFLD. A 14-week HFD regimen led to significant weight gain in both male and female mice. […] Moreover, PBI-4547 decreased serum triglycerides while enhancing adiponectin levels. […] Of note, the effects of PBI-4547 on bodyweight, food consumption, glucose tolerance, fasting blood glucose, insulin resistance and HOMA-β indices were absent in standard diet-fed mice (Table S1).
Total cholesterol levels were measured using the HDL/LDL/VLDL Cholesterol Assay kit (Abcam) according to manufacturer’s protocol. […] Liver triglycerides were extracted using a modified version of the Folch protocol[49]^, then quantified using a triglyceride colorimetric kit (Cayman Chemical).
WT or Gpr84^−/− mice, as previously described, (aged 10–14 weeks at the beginning of the experiment) were either fed a standard diet (STD) or a high-fat diet (HFD) (Envigo #TD.06414) for 14 weeks. At this point, mice were administered either vehicle (water) or PBI-4547 (10 mg/kg) on a daily basis for 6 (WT study) or 8 (WT vs KO study) weeks by gastric gavage, and were sacrificed thereafter. Liver and WAT tissues were fixed in 10% formalin for histological analyses or flash frozen in liquid nitrogen for RT-PCR analyses. All animal studies were reviewed and approved by the animal care and use committee of the Institut National de la Recherche Scientifique – Armand-Frappier (Laval, QC, Canada) and the University of Ottawa’s Animal Care and Veterinary Services (Ottawa, ON, Canada). Protocols were approved and undertaken according to the Canadian Council on Animal Care guidelines.
Oral glucose tolerance tests (OGTT) were completed 6 weeks after beginning of the treatments. Briefly, mice were fasted for 4–6 h, given a bolus of glucose at […] BW orally, and blood glucose values measured at 0, 15, 30, 60, 120 min. In parallel, a blood sample was obtained at 0, 15, 60 and 120 min for insulin quantification by ELISA (EMD Millipore).
After fixation in formalin, iWAT (inguinal), eWAT (epididymal) and liver sections were embedded in paraffin. Thin section of […] were stained with Hematoxylin and Eosin or Sirius red for analyses. WAT collagen deposition and liver characteristics of NAFLD were quantified histologically by a pathologist (R.C.) in a double-blinded manner. Liver histology was performed on H&E stained slides. WAT collagen deposition was scored using Picro Sirius-Red stained slides. Immunofluorescence-detection of α-SMA in liver sections was performed. Briefly, samples were deparaffinized in a series of xylenes, rehydrated in graded alcohols followed by an antigen-unmasking step by microwaving in Tris-buffer (pH 8.2). Sections were blocked with 10% donkey serum (Vector labs), 1% bovine serum albumin (Sigma) in PBS + 1%Tween for 1 h at room temperature. Slides were incubated overnight at 4 °C with an anti-mouse smooth muscle α-Actin antibody (1:300; Santa Cruz, clone #1A4). Secondary detection was performed using a donkey anti-mouse Alexa Fluor 594 (1:500; Molecular Probes), incubated for 1 h at room temperature. Slides were dehydrated and mounted with fluorescent antifade media containing DAPI (Vector labs). Images were taken at 100X and 200X magnification and representative images are shown.
RNA was extracted and purified as previously described. Real-time quantitative PCR was performed on a CFX96 Touch Real-Time PCR Detection System (Bio-Rad) using TaqMan gene expression assays (Fisher Scientific). qPCR data were analyzed using the 2-^ΔΔCt method, using Gapdh and Hprt as endogenous control. RT-qPCR data were reported as Geometric means ± SEM.
A portion of hepatic tissue (50 mg) was mechanically homogenized in 1 mL H2O/CH3CN (1/1) using a PowerGen 125 homogenizer (Fisher Scientific). The homogenates were centrifuged for 10 min at 5,000×g at 4 °C. Hydrophilic metabolites were lyophilized to remove water for NMR experiments. […]

[1] = HFD mice, 1H-NMR liver metabolomics

CCCCCc1cc(CCCCC)cc(CC(=O)[O-])c1.[Na+] [PBI-4547, 2-[3,5-dipentylphenyl]acetate sodium salt]
HOMA-IR index (HFD mice, 10 mg/kg daily): decreased by PBI-4547 to the STD group level
degree of hepatic inflammation (histology) (HFD mice, 10 mg/kg daily): remained unchanged
disposition index (HFD mice, 10 mg/kg daily): remained unchanged
fasting insulin levels (HFD mice, 10 mg/kg daily): lowered
hepatic ballooning (histology) (HFD mice, 10 mg/kg daily): markedly reduced
hepatic steatosis (histology) (HFD mice, 10 mg/kg daily): markedly reduced
liver total cholesterol (HFD mice, 10 mg/kg daily): without affecting
liver triglyceride levels (HFD mice, 10 mg/kg daily): reduced
oral glucose tolerance test (OGTT) (HFD mice, 10 mg/kg daily): better glycemic control
overall NAFLD score (HFD mice, 10 mg/kg daily): significantly improving
serum adiponectin levels (HFD mice, 10 mg/kg daily): enhancing
serum triglycerides (HFD mice, 10 mg/kg daily): decreased
organ weight (HFD mice, 10 mg/kg daily by gavage): without affecting
bodyweight (HFD mice, 10 mg/kg daily by gavage, 5 weeks after beginning of treatment): significant reduction
fasting blood glucose (HFD mice, 10 mg/kg daily, after 6 weeks of treatment): decreased
hepatic dysregulation of key amino acids and citric acid cycle intermediates (metabolomics) [1]: corrected
hepatic energy metabolism intermediates (metabolomics) [1]: restored back to normal levels
maximum diameter or average size of adipocytes (HFD mice, WAT morphometric analysis): did not affect
WAT expression of Pgc1a and Ucp1 (HFD mice, WAT qRT-PCR): induced
WAT expression of resistin and glucose transporters Slc2a2, Slc2a4 (HFD mice, WAT qRT-PCR): increased
WAT expression of vaspin (Serpina12) (HFD mice, WAT qRT-PCR): completely abolished
WAT mRNA of pro-fibrotic (Cola1, Ctgf, Mmp2, Timp1) and pro-inflammatory (Il6, Ccl2) genes (HFD mice, WAT qRT-PCR): downregulated
NAD+ in liver (HFD mice, liver metabolomics): restored high levels
hepatic Ucp2 and Ucp3 expression (HFD mice, qRT-PCR): highly upregulated
hepatic expression of FA metabolism genes Acox1, Cpt1b, Pdk4, Hadha, Cd36 (HFD mice, qRT-PCR): strong upregulation
hepatic expression of glucose metabolism genes Pklr, G6pc, Slc2a2 (HFD mice, qRT-PCR): normalized
liver Adipor2 expression (HFD mice, qRT-PCR): downregulated
liver Ctgf mRNA levels (HFD mice, qRT-PCR): significantly decreased
liver Mmp2 mRNA levels (HFD mice, qRT-PCR): significantly decreased
liver Retn (resistin) expression (HFD mice, qRT-PCR): restored to normal levels
liver Serpina12 (vaspin) expression (HFD mice, qRT-PCR): downregulated
liver pro-inflammatory genes (HFD mice, qRT-PCR): not modulated
WAT extent of interstitial fibrosis (HFD mice, white adipose tissue): decreased
WAT immune cell infiltration (HFD mice, white adipose tissue): decreased
serum total cholesterol (HFD mice, after four weeks of treatment): returned to similar level as in the HFD group
serum total cholesterol (HFD mice, after two weeks of treatment): slightly increased
HOMA-IR index (WT vs KO study, HFD-fed WT): reduced
WAT mean adipocyte diameters and area (WT vs KO study, HFD-fed WT): remained unchanged
fasting blood glucose levels (WT vs KO study, HFD-fed WT): downregulated
insulin levels (WT vs KO study, HFD-fed WT): reduced
liver glycogen levels (WT vs KO study, HFD-fed WT): increased
serum adiponectin (WT vs KO study, HFD-fed WT): upregulated
serum cholesterol levels (WT vs KO study, HFD-fed WT): remained unchanged
serum triglyceride levels (WT vs KO study, HFD-fed WT): lowered
α-SMA positive liver staining (immunofluorescence) (WT vs KO study, HFD-fed WT): dramatic drop
bodyweight (WT vs KO study, HFD-fed WT, 10 mg/kg daily, 8 weeks): decreased
OGTT (WT vs KO study, HFD-fed WT, after 6 weeks): significant effect
AMPK phosphorylation levels in the liver (data not shown): promote
